From patent publication US10428044B2, “3-amino-1,5,6,7-tetrahydro-4H-indol-4-ones” (Bayer Pharma Aktiengesellschaft, priority 2014, dated 2019)

The compounds below were run against (recombinant) catalytic domain of human Bub1 (amino acids 704-1085) (Homo sapiens (Human), UniProt O43683) (assay: Bub1 kinase assay (TR-FRET)). Conditions: ATP 10 μM final, peptide substrate 1 μM final, 60 min at 22° C., read-out: Biological Assay: Bub1 kinase assay median IC50.
Type: biochemical
Procedure, shortened: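 Compounds were serially diluted 1:3.4 from 2 mM DMSO stocks and incubated with the enzyme reaction for 60 min at 22° C. The reaction was stopped with EDTA, and biotinylated peptide phosphorylation was read by TR-FRET using Eu anti-mouse IgG, anti-phosphoserine antibody and streptavidin-XL665. IC50 was fitted by 4-parameter logistic to inhibition normalized to no-inhibitor and no-enzyme controls.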

Sequence of (recombinant) catalytic domain of human Bub1 (amino acids 704-1085) (O43683 704-1085): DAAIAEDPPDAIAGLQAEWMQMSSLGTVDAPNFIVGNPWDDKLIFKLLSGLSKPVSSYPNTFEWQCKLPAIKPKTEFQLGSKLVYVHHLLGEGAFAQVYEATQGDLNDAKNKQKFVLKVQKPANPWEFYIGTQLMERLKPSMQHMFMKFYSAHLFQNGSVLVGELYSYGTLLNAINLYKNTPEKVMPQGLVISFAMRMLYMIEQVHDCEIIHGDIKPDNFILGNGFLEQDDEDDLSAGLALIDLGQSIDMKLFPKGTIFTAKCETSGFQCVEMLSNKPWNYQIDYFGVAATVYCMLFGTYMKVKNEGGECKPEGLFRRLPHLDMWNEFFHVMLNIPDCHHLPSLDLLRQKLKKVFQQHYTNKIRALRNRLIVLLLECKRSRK

Structure (SMILES)	IC50
CC1(C)CC(=O)c2c([nH]c(-c3ccncc3)c2Nc2ccccc2Cl)C1 [Example 61, 3-[(2-chlorophenyl)amino]-6,6-dimethyl-2-(pyridin-4-yl)-1,5,6,7-tetrahydro-4H-indol-4-one]	0.0685 µM
CC1(C)CC(=O)c2c([nH]c(-c3ccncc3)c2Nc2cccc(-c3ccsc3)c2)C1 [Example 418, 6,6-dimethyl-2-(pyridin-4-yl)-3-{[3-(thiophen-3-yl)phenyl]amino}-1,5,6,7-tetrahydro-4H-indol-4-one]	0.0266 µM
Cc1ccc(Nc2c(-c3ccncc3)[nH]c3c2C(=O)CC(C)(C)C3)cc1 [Example 54, 6,6-dimethyl-3-[(4-methylphenyl)amino]-2-(pyridin-4-yl)-1,5,6,7-tetrahydro-4H-indol-4-one]	0.148 µM
O=C1CC(CF)Cc2[nH]c(-c3ccncc3)c(Nc3ccccc3)c21 (stereo not drawn) [Example 442, 6-(fluoromethyl)-3-(phenylamino)-2-(pyridin-4-yl)-1,5,6,7-tetrahydro-4H-indol-4-one]	0.00697 µM
CCCn1c2c(c(Nc3ccccc3)c1-c1ccncc1)C(=O)CC(C)(C)C2 [Example 182, 6,6-dimethyl-3-(phenylamino)-1-propyl-2-(pyridin-4-yl)-1,5,6,7-tetrahydro-4H-indol-4-one]	0.0689 µM
CC1(C)CC(=O)c2c([nH]c(-c3ccncc3)c2Nc2cc(Cl)ccc2F)C1 [Example 87, 3-[(5-chloro-2-fluorophenyl)amino]-6,6-dimethyl-2-(pyridin-4-yl)-1,5,6,7-tetrahydro-4H-indol-4-one]	1.78 µM
CS(=O)(=O)CCn1c2c(c(Nc3ccccc3)c1-c1ccncc1)C(=O)CCC2 [Example 176, 1-[2-(methylsulfonyl)ethyl]-3-(phenylamino)-2-(pyridin-4-yl)-1,5,6,7-tetrahydro-4H-indol-4-one]	2.04 µM
Cc1ccc(Cl)cc1Nc1c(-c2ccncc2)[nH]c2c1C(=O)CC(C)(C)C2 [Example 93, 3-[(5-chloro-2-methylphenyl)amino]-6,6-dimethyl-2-(pyridin-4-yl)-1,5,6,7-tetrahydro-4H-indol-4-one]	7.4 µM
CC1(C)CC(=O)c2c([nH]c(-c3ccncc3)c2Nc2ccccc2Oc2ccccc2)C1 [Example 159, 6,6-dimethyl-3-[(2-phenoxyphenyl)amino]-2-(pyridin-4-yl)-1,5,6,7-tetrahydro-4H-indol-4-one]	1.06 µM
CC1(C)CC(=O)c2c([nH]c(-c3ccncc3)c2Nc2ccc(F)c(F)c2)C1 [Example 21, 3-[(3,4-difluorophenyl)amino]-6,6-dimethyl-2-(pyridin-4-yl)-1,5,6,7-tetrahydro-4H-indol-4-one]	0.0132 µM
CC(C)c1cccc(Nc2c(-c3ccncc3)[nH]c3c2C(=O)CC(C)(C)C3)c1 [Example 85, 6,6-dimethyl-3-{[3-(propan-2-yl)phenyl]amino}-2-(pyridin-4-yl)-1,5,6,7-tetrahydro-4H-indol-4-one]	0.0735 µM
CC1(C)CC(=O)c2c([nH]c(-c3cc(Cl)ncc3Cl)c2Nc2ccccc2)C1 [Example 215, 2-(2,5-dichloropyridin-4-yl)-6,6-dimethyl-3-(phenylamino)-1,5,6,7-tetrahydro-4H-indol-4-one]	9.68 µM
Cc1cc(F)cc(Nc2c(-c3ccncc3)[nH]c3c2C(=O)CC(C)(C)C3)c1 [Example 14, 3-[(3-fluoro-5-methylphenyl)amino]-6,6-dimethyl-2-(pyridin-4-yl)-1,5,6,7-tetrahydro-4H-indol-4-one]	0.0108 µM
CC1(C)CC(=O)c2c([nH]c(-c3ccncc3)c2Nc2ccccc2C#N)C1 [Example 146, 2-{[6,6-dimethyl-4-oxo-2-(pyridin-4-yl)-4,5,6,7-tetrahydro-1H-indol-3-yl]amino}benzonitrile]	0.0482 µM
CC(C)C(=O)Nc1cccc(Nc2c(-c3ccncc3)[nH]c3c2C(=O)CC(C)(C)C3)c1 [Example 97, N-(3-{[6,6-dimethyl-4-oxo-2-(pyridin-4-yl)-4,5,6,7-tetrahydro-1H-indol-3-yl]amino}phenyl)-2-methylpropanamide]	2.98 µM

Now from value to compound:

IC50	Structure (SMILES)
0.00622 µM	Cn1nccc1COCC(=O)Nc1cc(-c2[nH]c3c(c2Nc2ccccc2)C(=O)CCC3)ccn1 [Example 351, 2-[(1-methyl-1H-pyrazol-5-yl)methoxy]-N-{4-[4-oxo-3-(phenylamino)-4,5,6,7-tetrahydro-1H-indol-2-yl]pyridin-2-yl}acetamide]
0.0725 µM	O=C(COc1ccsc1Cl)Nc1cc(-c2[nH]c3c(c2Nc2ccccc2)C(=O)CCC3)ccn1 [Example 345, 2-[(2-chlorothiophen-3-yl)oxy]-N-{4-[4-oxo-3-(phenylamino)-4,5,6,7-tetrahydro-1H-indol-2-yl]pyridin-2-yl}acetamide]
0.437 µM	CC(C)(C)NC(=O)Nc1cc(-c2[nH]c3c(c2Nc2ccccc2)C(=O)CCC3)ccn1 [Example 380, 1-tert-butyl-3-{4-[4-oxo-3-(phenylamino)-4,5,6,7-tetrahydro-1H-indol-2-yl]pyridin-2-yl}urea]
0.622 µM	O=C1CCCc2[nH]c(-c3ccnc(NCC4CC4)c3)c(Nc3ccccc3)c21 [Example 368, 2-{2-[(cyclopropylmethyl)amino]pyridin-4-yl}-3-(phenylamino)-1,5,6,7-tetrahydro-4H-indol-4-one]
1.69 µM	CC1(C)CC(=O)c2c([nH]c(-c3ccnc(NC(=O)C(F)F)c3)c2Nc2ccccc2)C1 [Example 166, N-{4-[6,6-dimethyl-4-oxo-3-(phenylamino)-4,5,6,7-tetrahydro-1H-indol-2-yl]pyridin-2-yl}-2,2-difluoroacetamide]
0.0112 µM	O=C(Nc1cc(-c2[nH]c3c(c2Nc2ccccc2)C(=O)CCC3)ccn1)c1cnn[nH]1 [Example 281, N-{4-[4-oxo-3-(phenylamino)-4,5,6,7-tetrahydro-1H-indol-2-yl]pyridin-2-yl}-1H-1,2,3-triazole-5-carboxamide]
0.0294 µM	O=C(Nc1cc(-c2[nH]c3c(c2Nc2ccccc2)C(=O)CCC3)ccn1)c1nccs1 [Example 270, N-{4-[4-oxo-3-(phenylamino)-4,5,6,7-tetrahydro-1H-indol-2-yl]pyridin-2-yl}-1,3-thiazole-2-carboxamide]
0.101 µM	O=C(COc1ccccn1)Nc1cc(-c2[nH]c3c(c2Nc2ccccc2)C(=O)CCC3)ccn1 [Example 347, N-{4-[4-oxo-3-(phenylamino)-4,5,6,7-tetrahydro-1H-indol-2-yl]pyridin-2-yl}-2-(pyridin-2-yloxy)acetamide]
0.0101 µM	CC1(C)CC(=O)c2c([nH]c(-c3ccnc(NC(=O)[C@H]4C[C@H]4F)c3)c2Nc2ccccc2)C1 [Example 259]
0.0294 µM	O=C(Nc1cc(-c2[nH]c3c(c2Nc2ccccc2)C(=O)CCC3)ccn1)c1ccccn1 [Example 269, N-{4-[4-oxo-3-(phenylamino)-4,5,6,7-tetrahydro-1H-indol-2-yl]pyridin-2-yl}pyridine-2-carboxamide]
0.0387 µM	CC1(C)CC(=O)c2c([nH]c(-c3ccnc(NC(=O)C(C)(C)F)c3)c2Nc2ccccc2)C1 [Example 475, N-{4-[6,6-dimethyl-4-oxo-3-(phenylamino)-4,5,6,7-tetrahydro-1H-indol-2-yl]pyridin-2-yl}-2-fluoro-2-methylpropanamide]
0.00449 µM	O=C(Nc1cc(-c2[nH]c3c(c2Nc2ccccc2)C(=O)CC2(CC2)C3)ccn1)c1cocn1 [Example 470, N-{4-[4′-oxo-3′-(phenylamino)-1′,4′,5′,7′-tetrahydrospiro[cyclopropane-1,6′-indol]-2′-yl]pyridin-2-yl}-1,3-oxazole-4-carboxamide]
0.0244 µM	O=C1CCCc2[nH]c(-c3ccncc3OCC3CC3)c(Nc3ccccc3)c21 [Example 455, 2-[3-(cyclopropylmethoxy)pyridin-4-yl]-3-(phenylamino)-1,5,6,7-tetrahydro-4H-indol-4-one]
0.00662 µM	CC1(C)CC(=O)c2c([nH]c(-c3ccnc(NC(=O)C4CC4(F)F)c3)c2Nc2ccccc2)C1 (stereo not drawn) [Example 477, N-{4-[6,6-dimethyl-4-oxo-3-(phenylamino)-4,5,6,7-tetrahydro-1H-indol-2-yl]pyridin-2-yl}-2,2-difluorocyclopropanecarboxamide]
0.023 µM	O=C1CCCc2[nH]c(-c3ccncc3)c(Nc3ccc(F)cc3)c21 [Example 42, 3-[(4-fluorophenyl)amino]-2-(pyridin-4-yl)-1,5,6,7-tetrahydro-4H-indol-4-one]
0.0316 µM	O=C(COc1cccc(F)c1)Nc1cc(-c2[nH]c3c(c2Nc2ccccc2)C(=O)CCC3)ccn1 [Example 338, 2-(3-fluorophenoxy)-N-{4-[4-oxo-3-(phenylamino)-4,5,6,7-tetrahydro-1H-indol-2-yl]pyridin-2-yl}acetamide]
0.00732 µM	O=C1CC2(CC2)Cc2[nH]c(-c3ccnc(F)c3)c(Nc3ccccc3)c21 [Example 207, 2′-(2-fluoropyridin-4-yl)-3′-(phenylamino)-1′,7′-dihydrospiro[cyclopropane-1,6′-indol]-4′(5′H)-one]
0.00438 µM	O=C(Nc1cc(-c2[nH]c3c(c2Nc2ccccc2)C(=O)CCC3)ccn1)c1cnn(Cc2ccccc2)c1 [Example 449, 1-benzyl-N-{4-[4-oxo-3-(phenylamino)-4,5,6,7-tetrahydro-1H-indol-2-yl]pyridin-2-yl}-1H-pyrazole-4-carboxamide]
0.0203 µM	O=C(Nc1ccccn1)Nc1cc(-c2[nH]c3c(c2Nc2ccccc2)C(=O)CCC3)ccn1 [Example 386, 1-{4-[4-oxo-3-(phenylamino)-4,5,6,7-tetrahydro-1H-indol-2-yl]pyridin-2-yl}-3-pyridin-2-ylurea]
0.354 µM	O=C1CCCc2[nH]c(-c3ccnc(C(F)F)c3)c(Nc3ccccc3)c21 [Example 401, 2-[2-(difluoromethyl)pyridin-4-yl]-3-(phenylamino)-1,5,6,7-tetrahydro-4H-indol-4-one]
0.22 µM	Nc1cc(-c2[nH]c3c(c2Nc2ccc(F)c(F)c2)C(=O)CCC3)ccn1 [Example 212, 2-(2-aminopyridin-4-yl)-3-[(3,4-difluorophenyl)amino]-1,5,6,7-tetrahydro-4H-indol-4-one]
